# Measurements from US6723302B1, “Model for cell migration and use thereof” (The Research Foundation of State University of New York, priority 1996, dated 2004).
# Columns and labels:
# [1] = test system: human adult dermal fibroblasts; assay: Three-dimensional transmigration model (collagen gel into fibrin gel); assay type: cell-based; conditions: for inhibition of transmigration by peptide added to the fibrin gel: transmigration stimulated by PR or PDGF-BB
# Description: (§1) Primary cultures of human adult dermal fibroblasts were cultured in Dulbecco's modified Eagle's medium (DMEM, Life Technologies) supplemented with 100 U/ml penicillin and 100 μg/ml streptomycin, 42 mmol/l sodium bicarbonate and 10% fetal bovine serum (FBS, Atlanta Biologicals, Norcross, Ga.) at 37° C. and 5% CO2/95% air in a humidified atmosphere. The cells were used between passages 4 and 12.
# (§2) Fibroblast cultures at 80% confluence were harvested by treatment with 0.05% trypsin/0.02% EDTA (ethylenediaminetetraacetic acid). Trypsin was inactivated by addition of soy bean trypsin inhibitor in PBS containing 0.2% BSA. The cells were washed twice with DMEM+10% FBS and resuspended at a concentration of 1×10^6 cells/ml. The fibroblasts were mixed with DMEM (5×), 10% FBS and neutralized collagen (Vitrogen 100, Celtrix Labs., Santa Clara, Calif.). In some experiments, FBS was replaced by 30 ng/ml PDGF-BB and 2% BSA. 0.6 ml aliquots of the cell mixture were added to the wells of a 24-well tissue culture plate, precoated with 2% BSA, and the collagen was allowed to polymerize at 37° C. The final concentration of collagen was 1.8 mg/ml and each gel contained 6×10^4 cells. After two hours incubation, the gels were gently detached from the plastic surface to allow contraction, 0.5 ml DMEM+10% FBS was added, and the gels were incubated overnight at 37° C. in 5% CO2.
# Fibrinogen was mixed with DMEM (5×) and 0.5 U/ml thrombin (New York Blood Center, New York, N.Y.) so that the final concentration of fibrinogen was 300 μg/ml. Aliquots of 450 μl were added to the wells of a 24-well plate, and after a 2 hour incubation at 37° C. in 5% CO2, the polymerized gels were dried overnight at room temperature under sterile conditions.
# Dried fibrin fibril-coated dishes were washed once with PBS and contracted collagen gels were placed on the surface. Fibrinogen, at a final concentration of 300 μg/ml, was mixed with DMEM (5×) and 1.0 U/ml thrombin. When needed, other supplements, such as growth factors, were added to the mixture. The collagen gels were surrounded with the fibrinogen solution so that the fibrin gel was level with the collagen gel (FIG. 1)
# The number of migrated cells was evaluated under a Nikon inverted phase microscope by counting identifiable cell nuclei located outside of the contracted collagen gel, either on the fibrin fibril substrate (two-dimensional model) or within the fibrin gel (three-dimensional model). Each condition was assayed in triplicate and experiments were repeated at least three times.
# [2] = test system: human adult dermal fibroblasts; assay: Two-dimensional outmigration model (collagen gel onto dried fibrin fibrils); assay type: cell-based; conditions: collagen gel surrounded with liquid medium instead of fibrin gel
# Description: as §1
# as §2, with “The final concentration of collagen was 1.8 mg/ml and each gel contained 6×10^4 cells. After two hours incubation, the gels were gently detached from the plastic surface to allow contraction, 0.5 ml DMEM+10% FBS was added, and the gels were incubated overnight at 37° C. in 5% CO2.” left out
# The number of migrated cells was evaluated under a Nikon inverted phase microscope by counting identifiable cell nuclei located outside of the contracted collagen gel, either on the fibrin fibril substrate (two-dimensional model) or within the fibrin gel (three-dimensional model). […]
molecule,measurement,setting,value
GRGDSP [synthetic RGD peptide],inhibition of transmigration by peptide added to the fibrin gel,[1],inhibited
"NCCCCCC(=O)O [ε-ACA, ε-Amino-n-Caproic acid]",inhibition of transmigration induced by PDGF-BB (protease inhibitors),[1]; in words,inhibited
same,reduction of invasion of the fibrin gel,"[1]; transmigration induced by PDGF-BB, 500 μg/ml ε-ACA",about 80%
same,inhibition of outmigration onto dried fibrin fibrils induced by PDGF-BB,[2],not inhibited
GRGESP [control-peptide],inhibition of transmigration by peptide added to the fibrin gel,[1],not
"PDGF-BB: Recombinant platelet-derived growth factor from ZymoGenetics (protein, UniProt P01127 82-190, looked up) Platelet-derived growth …: SLGSLTIAEPAMIAECKTRTEVFEISRRLIDRTNANFLVWPPCVEVQRCSGCCNNRNVQCRPTQVQLRPVQVRKIEIVRKKPIFKKATVTLEDHLACKCETVAAARPVT",induction of transmigration of fibroblasts from the collagen gel into the fibrin gel,[1]; counted after one day,could be induced
